Source: PubChem BioAssay (NCI)
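Five concentrations, 48 hours, 96-well plates. At the TGI there is no net growth.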

Experiments:
Experiment in all cases: DTP human tumour cell line panel, 48 h
[1] = test system: K-562 leukemia
[2] = test system: DLD-1 colon
[3] = test system: HCT-15 colon
[4] = test system: SNB-78 CNS
[5] = test system: M19-MEL melanoma
[6] = test system: RXF 393 renal
[7] = test system: KM20L2 colon
[8] = test system: DMS 273 small cell lung
[9] = test system: SR leukemia
[10] = test system: BT-549 breast
[11] = test system: HS 578T breast

Q: Which TGI [1] does the source give for `COC(OC)c1cccc2c1C(=O)CCC1(CC2)OCCCCO1` here?
A: Its TGI is over 100 µM.

Q: And the TGI [2]?
A: Its TGI is over 100 µM.

Q: What about the TGI [3] of the same compound?
A: The TGI was over 100 µM.

Q: And the TGI [4]?
A: Its TGI is over 100 µM.

Q: What about the TGI [5] of the same compound?
A: Its TGI is over 100 µM.

Q: What about the TGI [6] of the same compound?
A: Its TGI is over 100 µM.

Q: What about the TGI [7] of the same compound?
A: The TGI was over 100 µM.

Q: What about the TGI [8] of the same compound?
A: The TGI was over 100 µM.

Q: For `Cc1cc2c3ccccc3n3c2c2c1OC1(C)CCC(C2C1)C3(C)C` (stereo unspecified), which TGI [1] is on record?
A: Its TGI is over 25 µM.

Q: And the TGI [2]?
A: The TGI was over 25 µM.

Q: What about the TGI [3] of the same compound?
A: Its TGI is over 25 µM.

Q: And the TGI [4]?
A: Its TGI is over 25 µM.

Q: What about the TGI [5] of the same compound?
A: The TGI was over 25 µM.

Q: What about the TGI [9] of the same compound?
A: Its TGI is over 25 µM.

Q: What about the TGI [7] of the same compound?
A: Its TGI is over 25 µM.

Q: What about the TGI [8] of the same compound?
A: Its TGI is over 25 µM.

Q: How did the TGI [1] turn out when `Cc1[nH]c2c(C)c3c([nH]c4ccc(Cl)cc43)c(C)c2c(=O)c1C` was run?
A: The TGI was over 100 µM.

Q: And the TGI [2]?
A: The TGI was 73.3 µM.

Q: What about the TGI [10] of the same compound?
A: Its TGI is over 100 µM.

Q: What about the TGI [3] of the same compound?
A: The TGI was 5.72 µM.

Q: And the TGI [4]?
A: The TGI was over 100 µM.

Q: What about the TGI [5] of the same compound?
A: The TGI was 54.9 µM.

Q: And the TGI [9]?
A: Its TGI is 8.19 µM.

Q: And the TGI [11]?
A: Its TGI is over 100 µM.

Q: And the TGI [8]?
A: The TGI was 96.1 µM.

Q: For `CNC(=O)OC1/C(C)=C\C(C)C(O)C(OC)CC(C)CC2=C(OC)C(=O)C=C(C2=O)N(C)C(=O)/C(C)=C/C=C\C1OC` (stereo unspecified), which TGI [1] is on record?
A: Its TGI is 12.5 µM.

Q: What about the TGI [2] of the same compound?
A: The TGI was 16.4 µM.

Q: And the TGI [10]?
A: Its TGI is 18.5 µM.

Q: And the TGI [3]?
A: Its TGI is 17.5 µM.

Q: And the TGI [4]?
A: Its TGI is 30.3 µM.

Q: And the TGI [5]?
A: Its TGI is 14.7 µM.

Q: And the TGI [6]?
A: The TGI was 17.9 µM.

Q: And the TGI [7]?
A: Its TGI is 15.5 µM.

Q: What about the TGI [11] of the same compound?
A: The TGI was 15.3 µM.

Q: And the TGI [8]?
A: Its TGI is 14.8 µM.

Q: With `CCCOC(=O)CCC(NC(=O)c1ccc(Nc2nc3ccccc3nc2-c2cccs2)cc1)C(=O)OCCC` (stereo unspecified) as the compound, how does the TGI [1] read?
A: The TGI was over 100 µM.

Q: And the TGI [3]?
A: The TGI was over 100 µM.

Q: What about the TGI [4] of the same compound?
A: The TGI was over 100 µM.

Q: And the TGI [5]?
A: The TGI was over 100 µM.

Q: What about the TGI [9] of the same compound?
A: Its TGI is over 100 µM.

Q: And the TGI [6]?
A: The TGI was over 100 µM.

Q: And the TGI [7]?
A: The TGI was over 100 µM.

Q: What about the TGI [8] of the same compound?
A: Its TGI is over 100 µM.

Q: Which results are given for `Cc1c(CCCl)c(Cl)n2c(nc3ccccc32)c1C#N`?
A: TGI [1]: 3.34 µM; TGI [2]: 2.44 µM; TGI [10]: 3.98 µM; TGI [3]: 1.98 µM; TGI [4]: > 100 µM; TGI [5]: 9.76 µM; TGI [9]: 0.649 µM; TGI [6]: 3 µM; TGI [7]: 2.11 µM; TGI [8]: 3.15 µM

Q: With `CN1C/C(=C\c2ccccc2)C2=NN(C(N)=S)[C@H](c3ccccc3)[C@@H]2C1` as the compound, how does the TGI [1] read?
A: The TGI was over 100 µM.

Q: And the TGI [2]?
A: Its TGI is over 100 µM.

Q: What about the TGI [3] of the same compound?
A: The TGI was over 100 µM.

Q: What about the TGI [4] of the same compound?
A: The TGI was over 100 µM.

Q: What about the TGI [5] of the same compound?
A: The TGI was over 100 µM.

Q: And the TGI [9]?
A: Its TGI is over 100 µM.

Q: And the TGI [6]?
A: The TGI was over 100 µM.

Q: What about the TGI [7] of the same compound?
A: Its TGI is over 100 µM.

Q: And the TGI [8]?
A: Its TGI is over 100 µM.

Q: `CC(=O)OC1CCC2(C)C(CCC3C2CCC2(C)C(c4ccc(=O)oc4)C(OC(C)=O)CC32O)C1` (stereo unspecified) was tested. Which TGI [1] did it give?
A: The TGI was 0.141 µM.

Q: And the TGI [2]?
A: The TGI was 0.0293 µM.

Q: And the TGI [3]?
A: The TGI was 0.0313 µM.

Q: And the TGI [4]?
A: Its TGI is 0.112 µM.

Q: And the TGI [6]?
A: The TGI was 0.0128 µM.

Q: What about the TGI [7] of the same compound?
A: Its TGI is 0.092 µM.

Q: And the TGI [8]?
A: Its TGI is 0.0194 µM.

Q: With `CCN(CC)C(=O)Cc1[nH][nH]c(=O)c1C(=O)N(CC)CC` as the compound, how does the TGI [1] read?
A: Its TGI is over 100 µM.

Q: What about the TGI [2] of the same compound?
A: Its TGI is over 100 µM.

Q: What about the TGI [3] of the same compound?
A: The TGI was over 100 µM.

Q: What about the TGI [4] of the same compound?
A: Its TGI is over 100 µM.

Q: What about the TGI [5] of the same compound?
A: Its TGI is over 100 µM.

Q: What about the TGI [9] of the same compound?
A: Its TGI is over 100 µM.

Q: And the TGI [6]?
A: Its TGI is over 100 µM.

Q: What about the TGI [7] of the same compound?
A: The TGI was over 100 µM.

Q: And the TGI [8]?
A: The TGI was over 100 µM.

Q: Which results are given for `CC/C(CC(=O)CCC(=O)Nc1ccc(C)c(C)c1)=N\NC(=O)c1cc2ccccc2cc1O`?
A: TGI [1]: > 100 µM; TGI [2]: > 100 µM; TGI [3]: > 100 µM; TGI [4]: > 100 µM; TGI [5]: > 100 µM; TGI [9]: 69 µM; TGI [6]: 66.7 µM

Q: Which TGI [1] does the source give for `O=C1C=C2SC3C[C@@]24CC1(O)[N+]1=c2c4c(c(O)c4c2=C(C=N4)CC1)N3` here?
A: The TGI was 2.72 µM.

Q: What about the TGI [2] of the same compound?
A: The TGI was 2.65 µM.

Q: And the TGI [3]?
A: The TGI was 3.92 µM.

Q: What about the TGI [4] of the same compound?
A: The TGI was 4.21 µM.

Q: What about the TGI [5] of the same compound?
A: The TGI was 0.773 µM.

Q: And the TGI [6]?
A: Its TGI is 2.71 µM.

Q: What about the TGI [7] of the same compound?
A: Its TGI is 1.08 µM.

Q: And the TGI [8]?
A: Its TGI is 2.97 µM.

Q: With `CCOC(=O)CN(CC)C(=O)NC12CC3CC(CC(C3)C1)C2` as the compound, how does the TGI [1] read?
A: Its TGI is 683 µM.

Q: What about the TGI [2] of the same compound?
A: The TGI was over 119 µM.

Q: And the TGI [3]?
A: Its TGI is 646 µM.

Q: What about the TGI [4] of the same compound?
A: The TGI was 709 µM.

Q: And the TGI [5]?
A: The TGI was 472 µM.

Q: What about the TGI [6] of the same compound?
A: Its TGI is 509 µM.

Q: What about the TGI [7] of the same compound?
A: The TGI was 471 µM.

Q: And the TGI [8]?
A: The TGI was over 705 µM.
